Data: publication PMC6225423, “Synthesis, Structural and Thermal Studies of 3-(1-Benzyl-1,2,3,6-tetrahydropyridin-4-yl)-5-ethoxy-1H-indole (D2AAK1_3) as Dopamine D2 Receptor Ligand” (Molecules : A Journal of Synthetic Chemistry and Natural …, 2018)
pKi: −log10 of the molar value.

Molecular target: T1, human dopamine D2 receptor (Homo sapiens, UniProt P14416)
T1 construct: gene DRD2; cloned human D2S receptor
Assay: [3H]spiperone competition radioligand binding, membranes of CHO-K1 cells stably expressing human D2S

T1 sequence (P14416 1-414 isoform P14416-2): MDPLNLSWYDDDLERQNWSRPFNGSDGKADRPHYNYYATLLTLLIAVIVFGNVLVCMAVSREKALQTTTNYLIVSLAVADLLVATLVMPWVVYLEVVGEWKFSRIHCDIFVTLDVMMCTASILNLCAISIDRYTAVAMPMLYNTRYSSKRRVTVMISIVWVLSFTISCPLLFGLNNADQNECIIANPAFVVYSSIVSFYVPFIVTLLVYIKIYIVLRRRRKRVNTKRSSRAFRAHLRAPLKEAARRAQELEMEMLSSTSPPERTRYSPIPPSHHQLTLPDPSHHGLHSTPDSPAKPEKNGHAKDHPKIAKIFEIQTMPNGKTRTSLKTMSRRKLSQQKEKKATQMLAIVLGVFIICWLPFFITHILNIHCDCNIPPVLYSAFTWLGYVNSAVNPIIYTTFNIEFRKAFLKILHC

CCOc1ccc2[nH]cc(C3=CCN(Cc4ccccc4)CC3)c2c1 [D2AAK1_3, 3-(1-Benzyl-1,2,3,6-tetrahydropyridin-4-yl)-5-ethoxy-1H-indole]
pKi: 6.82
